Drawing on PubChem BioAssay (NCI), this text covers TGI for 9 compounds.

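In this assay, cells in 96-well plates receive the compound at five concentrations for 48 hours. Endpoints are linearly interpolated between the surrounding concentrations. Definition used: TGI = concentration required for complete inhibition of growth.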

Holding throughout (assay): growth of human tumour cells (NCI), 48 h
In test [1] the test system is BT-549 breast.
Test [2] has as its system CAKI-1 renal.
The subject of test [3] is A549 NSCLC.
Test [4] has as its system DU-145 prostate.
The subject of test [5] is RPMI-8226 leukemia.
For test [6], the system named is MCF7 breast.
Test [7] has as its system HCT-116 colon.
Test [8] deals with HCT-15 colon.
The subject of test [9] is SK-MEL-2 melanoma.
Test [10] concerns OVCAR-3 ovarian.
For test [11], the system named is CCRF-CEM leukemia.
In test [12] the test system is NCI-H460 lung.
Test [13] deals with MDA-N.
Test [14] concerns ACHN renal.
Test [15] concerns NCI/ADR-RES ovarian.
For test [16], the system named is SF-268 CNS.
For test [17], the system named is HS 578T breast.

Take `COC(=O)NC(=O)NC(Cc1ccccc1)NC(=O)OCc1ccccc1` (stereo not drawn): the TGI in test [1], in [2], in test [3], in test [4], in [5] and in test [6] was over 100 µM in each case. Further, the TGI in test [7], in test [8], in [9], in [10], in [11] and in test [12] was over 100 µM in each case. Further, the TGI in test [13], in test [14], in [15] and in [16] was over 100 µM throughout.

For `Brc1ccc(C2=NCSC(c3ccc(Br)cc3)=N2)cc1`, the TGI in test [1] is over 100 µM; in test [2] it was over 100 µM; in [3] it was over 100 µM; in test [17], over 100 µM; in [5], 63.5 µM; in [6] it was over 100 µM. Besides, the TGI in [7] is 59.2 µM; in test [8], over 100 µM; in test [9] it was 32.5 µM; in test [12], 53.8 µM; in test [13] it was 54.7 µM; in [14], over 100 µM. The TGI in [15] and in [16] was over 100 µM each time.

`Cc1ccc(S(=O)(=O)NNC(=O)Nc2cccc(C(F)(F)F)c2)cc1`: the TGI in test [2], in [3], in test [4], in [17], in [5] and in test [6] was over 100 µM each time. For the same compound, the TGI in [7], in [8], in [9], in test [11], in test [12] and in test [13] was over 100 µM in each case. The TGI in [14], in [15] and in test [16] was over 100 µM each time.

As for `CCC(C)N1CN(c2ccccc2)C2(CCN(CC3COc4ccccc4O3)CC2)C1=O` (stereo not drawn), the TGI in test [1] is 31.6 µM; in [2], 38.4 µM; in [3], over 100 µM; in test [4], 59.8 µM; in test [5], 47.2 µM; in [6], 49.6 µM. Moreover, the TGI in [7] is 32 µM; in test [8], 61.1 µM; in test [10] it was 56.2 µM; in [11] it was 64.5 µM; in test [13], 64.1 µM; in test [14], over 100 µM. The TGI in test [15] was 44.1 µM; in test [16], over 100 µM.

As for `CC(=O)c1ccc(Br)cc1NC1=CC(=O)c2ncccc2C1=O`, the TGI was 22.3 µM in test [2]; 10.6 µM in test [3]; 16.4 µM in test [4]; 35.6 µM in test [17]; 8.95 µM in test [5]; 11.6 µM in [6]. Besides, the TGI in test [7] came to 4.5 µM; in test [8] it was 10.3 µM; in test [9], 16.9 µM; in test [10], 4.09 µM; in [11], 32.2 µM; in [13] it was 3.62 µM. Moreover, the TGI in test [14] stood at 12.5 µM; in [15], 14.9 µM; in [16] it was 21.7 µM.

Take `COc1ccc(N2C(=O)c3cc([N+](=O)[O-])cnc3S2(=O)=O)cc1`: the TGI in test [1], in [3], in test [4], in test [17], in test [5] and in test [7] was over 100 µM in each case. The TGI in test [8], in [9], in test [10], in [11], in test [12] and in test [13] was over 100 µM in each case. The TGI in [14], in [15] and in test [16] was over 100 µM throughout.

Take `CN(C)CCNc1ccc(NCC[N+](C)(C)Cc2ccc([N+](=O)[O-])cc2)c2c1C(=O)c1c(O)ccc(O)c1C2=O`: the TGI is 40.9 µM in [1]; over 100 µM in test [2]; over 100 µM in test [4]; over 100 µM in [17]; over 100 µM in [5]; over 100 µM in test [7]. Also, the TGI in [8] was over 100 µM; in test [9] it was over 100 µM; in [10], over 100 µM; in [11], over 100 µM; in test [13] it was 69 µM; in [15], over 100 µM. Further, the TGI in test [16] is over 100 µM.

As to `Clc1ccc(/C=C/c2nc(-c3ccccc3)cn3c2nc2ccccc23)cc1Cl`, the TGI in [1], in test [3], in test [4], in test [5], in test [6] and in test [7] was over 100 µM each time. The TGI in test [8] was over 100 µM; in test [9], over 100 µM; in [10], over 100 µM; in test [11] it was 48 µM; in [12], over 100 µM; in test [13], over 100 µM. Moreover, the TGI in test [14], in [15] and in [16] was over 100 µM each time.

In the case of `Cc1cn2cc(-c3cccs3)nc2s1`, the TGI in [1], in [2], in [3], in [4], in test [17] and in [5] was over 100 µM throughout. Further, the TGI in test [6], in test [7], in test [8], in [9], in [10] and in test [11] was over 100 µM each time. The TGI in test [12], in [13], in [14] and in test [16] was over 100 µM each time.
